Assay results from ChEMBL document CHEMBL1201862, “PubChem BioAssay data set” (2004).
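Tested at 5 concentrations; 48 h exposure; 96-well plates; endpoints linearly interpolated, else capped at highest concentration. GI50: concentration for 50% inhibition of growth.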 Activity calls are given as the source filed them. No stated cut-off is given here; in the data, active = GI50 up to about 1.1 µM and inactive = higher.

What was measured:
Assay in all cases: inhibition of tumour cell growth, NCI panel, 48 h
[1] = tested on: HCT-116
[2] = tested on: NCI-H460
[3] = tested on: HOP-18
[4] = tested on: A498
[5] = tested on: SNB-75
[6] = tested on: MOLT-4
[7] = tested on: SK-MEL-28
[8] = tested on: Malme-3M
[9] = tested on: DMS-273
[10] = tested on: KM-20L2
[11] = tested on: LOX IMVI
[12] = tested on: U-251
[13] = tested on: NCI-H522
[14] = tested on: RXF 393
[15] = tested on: HCT-15
[16] = tested on: K562
[17] = tested on: A549
[18] = tested on: XF498
[19] = tested on: SK-MEL-2
[20] = tested on: NCI-H23
[21] = tested on: SNB-78
[22] = tested on: SK-OV-3
[23] = tested on: OVCAR-8
[24] = tested on: SK-MEL-5
[25] = tested on: OVCAR-3
[26] = tested on: COLO 205
[27] = tested on: IGROV-1
[28] = tested on: UO-31
[29] = tested on: HOP-62
[30] = tested on: HOP-92
[31] = tested on: M14
[32] = tested on: SF-295
[33] = tested on: 786-0
[34] = tested on: SW-620
[35] = tested on: SN12C
[36] = tested on: CCRF-CEM
[37] = tested on: SR
[38] = tested on: HT-29
[39] = tested on: RPMI-8226
[40] = tested on: UACC-62
[41] = tested on: UACC-257
[42] = tested on: SF-268
[43] = tested on: LXFL 529
[44] = tested on: DLD-1
[45] = tested on: OVCAR-4
[46] = tested on: SF-539
[47] = tested on: SNB-19
[48] = tested on: NCI-H226
[49] = tested on: DMS-114
[50] = tested on: CAKI-1
[51] = tested on: EKVX
[52] = tested on: TK-10
[53] = tested on: ACHN
[54] = tested on: KM12
[55] = tested on: M19-MEL
[56] = tested on: HL-60
[57] = tested on: HCC 2998
[58] = tested on: OVCAR-5

Q: How did the GI50 [1] turn out when `N[C@H](COCc1ccccc1)c1ccccc1` was run?
A: Its GI50 is 22.5 µM (inactive).

Q: What about the GI50 [2] of the same molecule?
A: Its GI50 is 22.8 µM (inactive).

Q: And the GI50 [3]?
A: Its GI50 is 25.9 µM (inactive).

Q: What about the GI50 [4] of the same molecule?
A: The GI50 was 32.4 µM (inactive).

Q: What about the GI50 [5] of the same molecule?
A: The GI50 was 20 µM (inactive).

Q: What about the GI50 [6] of the same molecule?
A: The GI50 was 16.7 µM (inactive).

Q: And the GI50 [7]?
A: The GI50 was 59.8 µM (inactive).

Q: And the GI50 [8]?
A: The GI50 was 33.4 µM (inactive).

Q: And the GI50 [9]?
A: The GI50 was 23.1 µM (inactive).

Q: And the GI50 [10]?
A: Its GI50 is 24.5 µM (inactive).

Q: What about the GI50 [11] of the same molecule?
A: Its GI50 is 29.3 µM (inactive).

Q: What about the GI50 [12] of the same molecule?
A: The GI50 was > 56 µM (inactive).

Q: And the GI50 [13]?
A: The GI50 was 16.5 µM (inactive).

Q: What about the GI50 [14] of the same molecule?
A: The GI50 was 27.3 µM (inactive).

Q: And the GI50 [15]?
A: Its GI50 is greater than 50.5 µM.

Q: And the GI50 [16]?
A: The GI50 was 28 µM (inactive).

Q: What about the GI50 [17] of the same molecule?
A: Its GI50 is 33.5 µM (inactive).

Q: And the GI50 [18]?
A: The GI50 was 21.1 µM (inactive).

Q: What about the GI50 [19] of the same molecule?
A: The GI50 was 21.1 µM (inactive).

Q: What about the GI50 [20] of the same molecule?
A: Its GI50 is 23 µM (inactive).

Q: And the GI50 [21]?
A: Its GI50 is 33.4 µM (inactive).

Q: And the GI50 [22]?
A: Its GI50 is 29.6 µM (inactive).

Q: What about the GI50 [23] of the same molecule?
A: Its GI50 is 35.6 µM (inactive).

Q: And the GI50 [24]?
A: The GI50 was 20.1 µM (inactive).

Q: What about the GI50 [25] of the same molecule?
A: The GI50 was 26.7 µM (inactive).

Q: And the GI50 [26]?
A: Its GI50 is 14.9 µM (inactive).

Q: What about the GI50 [27] of the same molecule?
A: Its GI50 is 39 µM (inactive).

Q: What about the GI50 [28] of the same molecule?
A: The GI50 was 30.3 µM (inactive).

Q: And the GI50 [29]?
A: The GI50 was > 46.5 µM (inactive).

Q: And the GI50 [30]?
A: The GI50 was 23.1 µM (inactive).

Q: And the GI50 [31]?
A: The GI50 was 23.1 µM (inactive).

Q: What about the GI50 [32] of the same molecule?
A: Its GI50 is 30.5 µM (inactive).

Q: What about the GI50 [33] of the same molecule?
A: The GI50 was 29.3 µM (inactive).

Q: And the GI50 [34]?
A: Its GI50 is 28.2 µM (inactive).

Q: What about the GI50 [35] of the same molecule?
A: Its GI50 is 27.7 µM (inactive).

Q: What about the GI50 [36] of the same molecule?
A: Its GI50 is 23.8 µM (inactive).

Q: What about the GI50 [37] of the same molecule?
A: The GI50 was 23.3 µM (inactive).

Q: And the GI50 [38]?
A: The GI50 was 28.8 µM (inactive).

Q: And the GI50 [39]?
A: The GI50 was 13.1 µM (inactive).

Q: What about the GI50 [40] of the same molecule?
A: Its GI50 is 32.1 µM (inactive).

Q: And the GI50 [41]?
A: The GI50 was 28.1 µM (inactive).

Q: And the GI50 [42]?
A: Its GI50 is 42.1 µM (inactive).

Q: And the GI50 [43]?
A: Its GI50 is 20.5 µM (inactive).

Q: And the GI50 [44]?
A: The GI50 was 24.9 µM (inactive).

Q: And the GI50 [45]?
A: The GI50 was 20.7 µM (inactive).

Q: And the GI50 [46]?
A: Its GI50 is 27.9 µM (inactive).

Q: And the GI50 [47]?
A: Its GI50 is 30.6 µM (inactive).

Q: And the GI50 [48]?
A: The GI50 was 27.7 µM (inactive).

Q: What about the GI50 [49] of the same molecule?
A: Its GI50 is 23.2 µM (inactive).

Q: And the GI50 [50]?
A: The GI50 was 23.7 µM (inactive).

Q: And the GI50 [51]?
A: The GI50 was 33 µM (inactive).

Q: What about the GI50 [52] of the same molecule?
A: The GI50 was 32.1 µM (inactive).

Q: And the GI50 [53]?
A: The GI50 was 31.5 µM (inactive).

Q: And the GI50 [54]?
A: Its GI50 is 27.4 µM (inactive).

Q: And the GI50 [55]?
A: The GI50 was 25 µM (inactive).

Q: And the GI50 [56]?
A: Its GI50 is 11.9 µM (inactive).

Q: And the GI50 [57]?
A: Its GI50 is 29.9 µM (inactive).

Q: And the GI50 [58]?
A: The GI50 was 24.9 µM (inactive).

Q: For `Cc1ccc(NCC(=O)N2CC(=O)Nc3ccccc32)cc1`, which GI50 [1] is on record?
A: The GI50 was > 100 µM (inactive).

Q: What about the GI50 [2] of the same molecule?
A: The GI50 was > 100 µM (inactive).

Q: What about the GI50 [3] of the same molecule?
A: The GI50 was > 100 µM (inactive).

Q: And the GI50 [5]?
A: Its GI50 is > 100 µM (inactive).

Q: What about the GI50 [6] of the same molecule?
A: Its GI50 is > 100 µM (inactive).

Q: And the GI50 [7]?
A: The GI50 was > 100 µM (inactive).

Q: And the GI50 [8]?
A: Its GI50 is > 100 µM (inactive).

Q: And the GI50 [9]?
A: Its GI50 is > 100 µM (inactive).

Q: What about the GI50 [10] of the same molecule?
A: The GI50 was > 100 µM (inactive).

Q: And the GI50 [11]?
A: The GI50 was > 100 µM (inactive).

Q: And the GI50 [12]?
A: Its GI50 is > 100 µM (inactive).

Q: What about the GI50 [13] of the same molecule?
A: The GI50 was > 100 µM (inactive).

Q: What about the GI50 [14] of the same molecule?
A: Its GI50 is > 100 µM (inactive).

Q: And the GI50 [15]?
A: Its GI50 is greater than 100 µM.

Q: And the GI50 [16]?
A: The GI50 was > 100 µM (inactive).

Q: What about the GI50 [17] of the same molecule?
A: The GI50 was > 100 µM (inactive).

Q: And the GI50 [18]?
A: Its GI50 is 75.7 µM (inactive).

Q: And the GI50 [19]?
A: Its GI50 is > 100 µM (inactive).

Q: And the GI50 [20]?
A: The GI50 was > 100 µM (inactive).

Q: What about the GI50 [21] of the same molecule?
A: The GI50 was > 100 µM (inactive).

Q: And the GI50 [22]?
A: Its GI50 is > 100 µM (inactive).

Q: And the GI50 [23]?
A: Its GI50 is > 100 µM (inactive).

Q: What about the GI50 [24] of the same molecule?
A: The GI50 was > 100 µM (inactive).

Q: And the GI50 [25]?
A: The GI50 was > 100 µM (inactive).

Q: What about the GI50 [26] of the same molecule?
A: The GI50 was > 100 µM (inactive).

Q: And the GI50 [28]?
A: Its GI50 is > 100 µM (inactive).

Q: What about the GI50 [29] of the same molecule?
A: Its GI50 is > 100 µM (inactive).

Q: What about the GI50 [30] of the same molecule?
A: Its GI50 is > 100 µM (inactive).

Q: What about the GI50 [31] of the same molecule?
A: Its GI50 is > 100 µM (inactive).

Q: And the GI50 [32]?
A: Its GI50 is > 100 µM (inactive).

Q: What about the GI50 [33] of the same molecule?
A: The GI50 was > 100 µM (inactive).

Q: What about the GI50 [34] of the same molecule?
A: Its GI50 is > 100 µM (inactive).

Q: And the GI50 [35]?
A: The GI50 was > 100 µM (inactive).

Q: And the GI50 [36]?
A: Its GI50 is > 100 µM (inactive).

Q: And the GI50 [37]?
A: The GI50 was > 100 µM (inactive).

Q: And the GI50 [38]?
A: Its GI50 is > 100 µM (inactive).

Q: What about the GI50 [39] of the same molecule?
A: The GI50 was > 100 µM (inactive).

Q: What about the GI50 [40] of the same molecule?
A: Its GI50 is > 100 µM (inactive).

Q: And the GI50 [41]?
A: Its GI50 is > 100 µM (inactive).

Q: What about the GI50 [42] of the same molecule?
A: Its GI50 is > 100 µM (inactive).

Q: And the GI50 [43]?
A: Its GI50 is > 100 µM (inactive).

Q: What about the GI50 [44] of the same molecule?
A: Its GI50 is > 100 µM (inactive).

Q: What about the GI50 [45] of the same molecule?
A: The GI50 was > 100 µM (inactive).

Q: And the GI50 [46]?
A: Its GI50 is > 100 µM (inactive).

Q: What about the GI50 [47] of the same molecule?
A: Its GI50 is > 100 µM (inactive).

Q: And the GI50 [48]?
A: The GI50 was > 100 µM (inactive).

Q: What about the GI50 [49] of the same molecule?
A: The GI50 was > 100 µM (inactive).

Q: What about the GI50 [50] of the same molecule?
A: The GI50 was > 100 µM (inactive).

Q: What about the GI50 [51] of the same molecule?
A: Its GI50 is > 100 µM (inactive).

Q: And the GI50 [52]?
A: Its GI50 is > 100 µM (inactive).

Q: What about the GI50 [53] of the same molecule?
A: Its GI50 is > 100 µM (inactive).

Q: What about the GI50 [54] of the same molecule?
A: The GI50 was > 100 µM (inactive).

Q: And the GI50 [55]?
A: Its GI50 is > 100 µM (inactive).

Q: And the GI50 [56]?
A: Its GI50 is > 100 µM (inactive).

Q: And the GI50 [57]?
A: Its GI50 is > 100 µM (inactive).

Q: What about the GI50 [58] of the same molecule?
A: Its GI50 is > 100 µM (inactive).
